# Laboratory results reported in patent publication US9062070B2, “Inhibitors of the renal outer medullary potassium channel” (Merck Sharp & Dohme Corp., priority 2011, dated 2015).
# Key:
# hROMK (hKir1.1) = hROMK (hKir1.1) (Homo sapiens (Human), UniProt P48048); experiment: Thallium Flux Assay (ROMK channel functional thallium flux, FLIPR-Tetra); assay type: cell-based; details: HEK293 cells stably expressing hROMK (hKir1.1)
# Experimental: HEK293 cells stably expressing hROMK (hKir1.1) were grown at 37° C. in a 10% CO2 humidified incubator in complete growth media: Dulbecco's Modified Eagle Medium supplemented with non-essential amino acids, Penicillin/Streptomycin/Glutamine, G418 and FBS. At >80% confluency, aspirate the media from the flask and rinse with 10 mL Calcium/Magnesium-free PBS. Add 5 mL of 1× trypsin (prepared in Ca/Mg Free PBS) to T-225 flask and return flask to 37° C./CO2 incubator for 2-3 minutes. To dislodge the cell, gently bang the side of the flask with your hand. Triturate the cells completely and then transfer the cells to 25 mL complete media. Centrifuge at 1,500 rpm for 6 min followed by resuspension in complete growth media and determine cell concentration. For typical re-seeding, 4E6 cells/T-225 flask will attain>80% confluency in 4 days. Under ideal growth conditions and appropriate tissue culture practices, this cell line is stable for 40-45 passages.
# • FluxOR™ Reagent (Component A) • FluxOR™ Assay Buffer (Component B)—10× Concentrate • PowerLoad™ Concentrate (Component C)—100× Concentrate • Probenecid (Component D)—Lyophilized sample is kept at −20° C. Water soluble, 100× after solubilization in 1 mL water. Store at 4° C. • FluxOR™ Chloride-free Buffer (Component E)—5× Concentrate • Potassium sulfate (K2SO4) Concentrate (Component F)—125 mM in water. Store at 4° C. • Thallium sulfate (Tl2SO4) Concentrate (Component G)—50 mM in water. Store at 4° C. • DMSO (dimethyl sulfoxide, Component H)—1 mL (100%) Reagent Preparation: FluxOR Working Solutions • 1000× FluxOR™ Reagent: Reconstitute a vial of component A in 100 μl DMSO; Mix well; Store 10 μl aliquots at −20° C. • 1× FluxOR™ Assay Buffer: Dilute Component B 10-fold with water; Adjust pH to 7.4 with Hepes/NaOH; Filter and store at 4° C. • Probenecid/Assay Buffer: 100 mL of 1× FluxOR™ Assay Buffer; 1 mL of reconstituted component D; Store at 4° C. • Loading Buffer (per microplate): 10 μl 1000× FluxOR™ Reagent; 100 μl component C; 10 mL Probenecid/Assay Buffer • Compound Buffer (per microplate): 20 mL Probenecid/Assay Buffer; 0.3 mM ouabain (10 mM ouabain in water can be stored in amber bottle/aluminum foil at room temperature); Test compound • 1× FluxOR™ Chloride-Free Buffer: Prepare 1× working solution in water. Can be stored at room temperature • Stimulant Buffer (prepared at 5× final concentration in 1× FluxOR™ Chloride-Free Buffer): 7.5 mM Thallium sulfate and 0.75 mM Potassium sulfate (to give a final assay concentration of 3 mM Thallium/0.3 mM Potassium). Store at 4° C. when not in use. If kept sterile, this solution is good for months. Assay Protocol—
# The ROMK channel functional thallium flux assay is performed in 384 wells, using the FLIPR-Tetra instrument. HEK-hKir1.1 cells are seeded in Poly-D-Lysine microplates and kept in a 37° C.-10% CO2 incubator overnight. On the day of the experiment, the growth media is replaced with the FluxOR™ reagent loading buffer and incubated, protected from light, at ambient temperature (23-25° C.) for 90 min. The loading buffer is replaced with assay buffer±test compound followed by 30 min incubation at ambient temperature, where the Thallium/Potassium stimulant is added to the microplate.
# • 1. Seed HEK-hKir1.1 cells (50 μl at 20,000 cells/well) in 384-well PDL coated Microplates • 2. Allow cells to adhere overnight in humidified 37° C./10% CO2 incubator • 3. Completely remove cell growth media from microplate and replace with 25 μl loading buffer • 4. Incubate Microplate at room temperature, protected form light, for 90 min • 5. Remove loading buffer and replace with 25 μl 1× Assay Buffer±test compound. • 6. Incubate microplate at room temperature, protected form light, for 30 min • 7. At FLIPR-Tetra 384: Add stimulant (Thallium/Potassium) solution to microplate and monitor fluorescence. Excitation=400 nm, Emission=460 & 580 nm. Collect data for ˜10 min. Data Calculation—
# Kir1.1 (ROMK1) = Kir1.1 (ROMK1) (Homo sapiens (Human), UniProt P48048); experiment: Electrophysiology Assay (whole cell voltage clamp, IonWorks Quattro); assay type: cell-based; details: Chinese hamster ovary cells stably expressing Kir1.1; block during voltage step to 0 mV
# Kir1.1 (ROMK1), sequence (P48048 whole entry): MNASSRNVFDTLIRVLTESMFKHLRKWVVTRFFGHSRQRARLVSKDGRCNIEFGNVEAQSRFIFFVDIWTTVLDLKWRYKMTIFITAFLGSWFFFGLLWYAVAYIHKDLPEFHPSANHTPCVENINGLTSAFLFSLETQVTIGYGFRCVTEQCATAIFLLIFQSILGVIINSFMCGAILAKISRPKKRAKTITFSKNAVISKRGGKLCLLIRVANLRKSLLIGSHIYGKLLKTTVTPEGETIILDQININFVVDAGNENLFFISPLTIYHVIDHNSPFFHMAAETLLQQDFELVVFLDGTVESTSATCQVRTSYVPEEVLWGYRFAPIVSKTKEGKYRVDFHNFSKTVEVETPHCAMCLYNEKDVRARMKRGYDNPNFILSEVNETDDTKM
# Experimental: Block of Kir1.1 (ROMK1) currents was examined by whole cell voltage clamp (Hamill et. al. […] Prior to an experiment, Kir1.1 expression was induced by overnight incubation with 1 mM sodium butyrate. […] After centrifugation, the cell pellet was resuspended in approximately 4.0 mL of bath solution and placed in the IonWorks instrument. The intracellular solution consisted of (in mM): 80 K gluconate, 40 KCl, 20 KF, 3.2 MgCl2, 3 EGTA, 5 Hepes, pH 7.4. […] Amphotericin B (Sigma A-4888) was prepared as a 40 mg/mL solution in DMSO. Voltage protocols and current recordings were performed using the IonWorks HT software/hardware system. […] No correction for liquid junction potentials was used. The test pulse, consisting of a 100 ms step to 0 mV from a holding potential of −70 mV, followed by a 100 ms voltage ramp from −70 mV to +70 mV, was applied before and after a 6 min compound incubation period. Test compounds were prepared by diluting DMSO stock solutions into the bath solution at 3× the final concentration and placed in the instrument in 96-well polypropylene plates. Current amplitudes were measured using the IonWorks software. To assess compound potency, the fractional block during the voltage step to 0 mV was calculated in Microsoft Excel (Microsoft, Redmond, Calif.), and dose-response curves were fitted with Igor Pro 4.0 (WaveMetrics, Lake Oswego, Oreg.).
# hROMK (hKir1.1), sequence (P48048 whole entry): as above
SMILES,IC50 (hROMK (hKir1.1)) [nM],IC50 (Kir1.1 (ROMK1)) [nM]
"Cc1c([C@@H]2CN3CCN(C(=O)C4CCc5nc(-n6cnnn6)ncc54)C[C@@H]3CO2)ccc(F)c1C#N (single isomer, unassigned) [Example 2C]",120,150
"Cc1c([C@@H]2CN3CCN(C(=O)C4CCc5nc(-n6cnnn6)ncc54)C[C@@H]3CO2)ccc(F)c1C#N (single isomer, unassigned) [Example 2D]",130,100
"Cc1c([C@@H]2CN3CCN(C(=O)C4CCc5nc(-n6cnnn6)ncc54)C[C@H]3CO2)ccc(F)c1C#N (single isomer, unassigned) [Example 2E]",130,
"Cc1c([C@@H]2CN3CCN(C(=O)C4CCc5nc(-n6cnnn6)ncc54)C[C@H]3CO2)ccc(F)c1C#N (single isomer, unassigned) [Example 2F]",390,
"Cc1c([C@H]2CN3CCN(C(=O)C4CCc5nc(-n6cnnn6)ncc54)C[C@H]3CO2)ccc(F)c1C#N (single isomer, unassigned) [Example 2G]",270,130
"Cc1c([C@H]2CN3CCN(C(=O)C4CCc5nc(-n6cnnn6)ncc54)C[C@H]3CO2)ccc(F)c1C#N (single isomer, unassigned) [Example 2H]",140,100
"Cc1c([C@H]2CN3CCN(C(=O)C4CCc5cc(-n6cnnn6)ncc54)C[C@H]3CO2)ccc(F)c1C#N (single isomer, unassigned) [Example 35]",180,110
"Cc1c([C@@H]2CN3CCN(C(=O)C4CCc5cc(-n6cnnn6)ncc54)C[C@H]3CN2)ccc(F)c1C#N (single isomer, unassigned) [Example 96A]",200,100
"Cc1c([C@@H]2CN3CCN(C(=O)C4CCc5cc(-n6cnnn6)ncc54)C[C@H]3CN2)ccc(F)c1C#N (single isomer, unassigned) [Example 96B]",> 1000,> 1000
"Cc1c(C2CN3CCN(C(=O)[C@H]4CCc5nc(-n6cnnn6)ncc54)C[C@@H]3CO2)ccc(F)c1C#N (stereo in doubt) [Example 2A, 6-Fluoro-2-methyl-3-[(3S,9aR)-8-{[(5S)-2-(1H-tetrazol-1-yl)-6,7-dihydro-5H-cyclopenta[d]pyrimidin-5-yl]carbonyl}octahydropyrazino[2,1-c][1,4]oxazin-3-yl]benzonitrile]",220,100
"Cc1c([C@H]2CN3CCN(C(=O)[C@@H]4CCc5nc(-n6cnnn6)ncc54)C[C@@H]3CO2)ccc(F)c1C#N [Example 2B, 6-fluoro-2-methyl-3-[(3S,9aR)-8-{[(5R)-2-(1H-tetrazol-1-yl)-6,7-dihydro-5H-cyclopenta[d]pyrimidin-5-yl]carbonyl}octahydropyrazino[2,1-c][1,4]oxazin-3-yl]benzonitrile]",350,100
Cc1c([C@H]2CN3CCN(C(=O)C4CCc5nc(-n6cnnn6)ncc54)C[C@H]3CO2)ccc2c1COC2=O (some centres unmarked) [Example 3],250,530
Cc1c([C@H]2CN3CCN(C(=O)C4CCc5nc(-n6cnnn6)ccc54)C[C@H]3CO2)ccc(F)c1C#N (some centres unmarked) [Example 4],460,180
Cc1c([C@H]2CN3CCN(C(=O)C4CCc5nc(-n6cnnn6)ccc54)C[C@H]3CO2)ccc(F)c1C#N (some centres unmarked) [Example 5],170,100
Cc1c([C@@H]2CN3CCN(C(=O)C4CCc5nc(-n6cnnn6)ccc54)C[C@H]3CO2)ccc(F)c1C#N (some centres unmarked) [Example 6],240,100
Cc1c([C@@H]2CN3CCN(C(=O)C4CCc5nc(-n6cnnn6)ccc54)C[C@H]3CO2)ccc(F)c1C#N (some centres unmarked) [Example 7],140,80
Cc1c([C@H]2CN3CCN(C(=O)C4CCCc5nc(-n6cnnn6)ccc54)C[C@H]3CO2)ccc(F)c1C#N (some centres unmarked) [Example 8],350,240
Cc1c([C@H]2CN3CCN(C(=O)C4CCCc5nc(-n6cnnn6)ccc54)C[C@H]3CO2)ccc(F)c1C#N (some centres unmarked) [Example 9],610,190
Cc1c([C@@H]2CN3CCN(C(=O)C4CCCc5nc(-n6cnnn6)ccc54)C[C@H]3CO2)ccc(F)c1C#N (some centres unmarked) [Example 10],410,180
Cc1c([C@@H]2CN3CCN(C(=O)C4CCCc5nc(-n6cnnn6)ccc54)C[C@H]3CO2)ccc(F)c1C#N (some centres unmarked) [Example 11],360,240
Cc1c([C@@H]2CN3CCN(C(=O)C4CCCc5nc(-n6cnnn6)ccc54)C[C@@H]3CO2)ccc(F)c1C#N (some centres unmarked) [Example 12],450,160
Cc1c([C@H]2CN3CCN(C(=O)C4CCCc5nc(-n6cnnn6)ccc54)C[C@@H]3CO2)ccc(F)c1C#N (some centres unmarked) [Example 13],320,260
O=C1OCCc2cc([C@@H]3CN4CCN(C(=O)C5CCCc6nc(-n7cnnn7)ccc65)C[C@H]4CO3)ccc21 (some centres unmarked) [Example 14],470,210
Cc1c([C@@H]2CN3CCN(C(=O)C4CCc5nc(-n6cnnn6)ccc54)C[C@H]3CO2)csc1C#N (some centres unmarked) [Example 15],540,60
N#Cc1c(F)ccc([C@@H]2CN3CCN(C(=O)C4CCc5nc(-n6cnnn6)ccc54)C[C@H]3CO2)c1F (some centres unmarked) [Example 18],400,110
N#Cc1c(F)ccc([C@H]2CN3CCN(C(=O)C4CCc5nc(-n6cnnn6)ccc54)C[C@H]3CO2)c1F (some centres unmarked) [Example 19],420,90
Cc1c(C#N)cccc1[C@@H]1CN2CCN(C(=O)C3CCc4nc(-n5cnnn5)ccc43)C[C@H]2CO1 (some centres unmarked) [Example 71],,120
Cc1c(C#N)cccc1[C@@H]1CN2CCN(C(=O)C3CCc4cc(-n5cnnn5)ncc43)C[C@@H]2CO1 (some centres unmarked) [Example 94],290,
O=C1OCc2c1ccc([C@@H]1CN3CCN(C(=O)C4CCc5nc(-n6cnnn6)ccc54)C[C@H]3CO1)c2C1CC1 (some centres unmarked) [Example 95],180,
